Data: publication PMC12858467, “In vitro toxicokinetics and metabolic profiling of methoxycathinones and methylthiocathinones using human liver systems and hyphenated mass spectrometry” (Archives of Toxicology, 2025)
Where two headings read alike, the source gives them in different places.

How the values were obtained:
Assay type in all cases: in vitro ADME
[1] = In vitro plasma protein binding (ultrafiltration, Centrifree); conditions: human, pooled human blood plasma, 30 min, 37 °C, ultrafiltration
Experimental: PPB was investigated according to a previous study with minor modifications (Kroesen et al. [2025]). Fresh and pooled human blood plasma (450 µL) was spiked with 50 µL of a 5 µM methanolic solution of 4MeO-NE-BP, 4MeO-αP-BP, 4MeO-αP-VP, 4MeS-NE-BP, 4MeS-αP-BP, or 4MeS-αMor-PrP. The mixture was incubated for 30 min at 37 °C and with gentle shaking at 200 rpm. […] The Centrifree devices were centrifuged for 35 min at 1600 × g to obtain 100 µL of the ultrafiltrate (UF). […] Experiments were performed in quadruplicate. Fraction unbound (fu) and PPB were determined by comparing the area ratios of the compound and trimipramine-d3 as an internal standard in the UF and GA using the following equations:1 fu=peak area ratiocompoundUF/ISUF/peak area ratiocompoundGA/ISGA 2 PPB[\%]=1-fu∗100.

[2] = test system: pooled human liver S9 fraction (pHLS9) and HepaRG cells; assay: In vitro metabolism by pHLS9 and HepaRG cells (LC-HRMS/MS metabolite identification); conditions: 25 µM substrate
CYP2D6 = molecular target: T1, CYP2D6 (Homo sapiens, UniProt P10635); assay: Monooxygenases activity screening, CYP2D6; conditions: 25 µM, 30 min, 37 °C
T1 construct: purchased Discovery Life Sciences (Huntsville, LA, USA); host or cells: baculovirus-infected insect cells (microsomes, Supersomes)
Experimental: For incubations with CYP2A6 or CYP2C9, phosphate buffer was replaced with 90 mM Tris buffer, according to the manufacturer’s guideline. […] All incubations were done in duplicate and concentrations were fixed. Verapamil (25 µM) was incubated as a positive control.

[3] = read-out: fu (unbound fraction)

T1 sequence (P10635 whole entry): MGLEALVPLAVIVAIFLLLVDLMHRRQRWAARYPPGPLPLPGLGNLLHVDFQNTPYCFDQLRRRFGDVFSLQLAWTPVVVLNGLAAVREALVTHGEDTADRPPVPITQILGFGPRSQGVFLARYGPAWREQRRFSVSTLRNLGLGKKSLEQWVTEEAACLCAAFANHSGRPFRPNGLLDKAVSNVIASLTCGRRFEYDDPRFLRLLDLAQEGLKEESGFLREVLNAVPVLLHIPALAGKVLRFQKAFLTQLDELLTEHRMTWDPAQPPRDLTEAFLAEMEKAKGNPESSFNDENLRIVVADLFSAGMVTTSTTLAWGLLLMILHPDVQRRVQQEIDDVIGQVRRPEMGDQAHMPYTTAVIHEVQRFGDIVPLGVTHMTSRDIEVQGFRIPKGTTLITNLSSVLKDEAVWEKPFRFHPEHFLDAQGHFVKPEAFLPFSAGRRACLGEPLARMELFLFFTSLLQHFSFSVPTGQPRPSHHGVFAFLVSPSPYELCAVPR

Row | Compound | fraction unbound at 30 min, 0.5 µM ([1]; read-out: PPB, % (converted)) | fraction unbound at 30 min, 0.5 µM [1, 3] | metabolic reactions (metabolite IDs) identified [2] | number of metabolites tentatively identified [2] | S-demethylation, only mediated by one CYP isoform (CYP2D6)
1 | CSc1ccc(C(=O)C(C)N2CCOCC2)cc1 (centres unmarked) [4MeS-αMor-PrP, 4’-methylthio-2-morpholinopropiophenone] | 0.14 | 0.14 | S-demethylation (MT3.1), hydroxylation (MT3.2), N-oxidation (MT3.3), oxo reduction (MT3.4), lactam formation (MT3.6), N,O-bis-dealkylation (MT3.7), dehydrogenation (MT3.9), and combinations thereof | 10 | 
2 | CCNC(CC)C(=O)c1ccc(SC)cc1 (centres unmarked) [Compound 4MeS-NE-BP, 4’-methylthio-N-ethylbutyrophenone] | 0.13 | 0.13 | S-demethylation (MT1.1), hydroxylation (MT1.2), N-dealkylation (MT1.3), hydroxylamine formation (MT1.4), hydroxylation + oxidation (MT1.5), N-dealkylation + S-demethylation (MT1.6), and hydroxylamine formation + hydroxylation (MT1.7) | 7 | CYP2D6
3 | CCC(C(=O)c1ccc(SC)cc1)N1CCCC1 (stereo not drawn) [Compound 4MeS-αP-BP, 4’-methylthio-α-pyrrolidinobutyrophenone] | 0.16 | 0.16 | S-demethylation (MT2.1), hydroxylation (MT2.2), N-oxidation (MT2.3), lactam formation (MT2.4), N,N-bis-dealkylation (MT2.5), dihydroxylation (MT2.6), S-demethylation + hydroxylation (MT2.7), and N-oxidation + hydroxylation (MT2.8) | 8 | CYP2D6
